Results from US7196110B2, “N-substituted tricyclic 3-aminopyrazoles as inhibitors for the treatment of cell proliferative disorders” (Janssen Phamaceutica N.V., priority 2002, dated 2007).
Like-named read-outs stand apart in the source and are kept apart here.

Key:
[1] = biological target: T1, PDGF-receptor beta enzyme comprising the tyrosine kinase domain (Homo sapiens, UniProt P09619); experiment: Inhibition of PDGF-receptor kinase activity (cell-free, PLC1 peptide, 33P Flashplate); assay type: biochemical; conditions: for inhibition at 10 µM: compound at 10 uM, read-out: Percent Inhibition @ 10 uM
T1 construct: from amino acid 545 to 1106 of GenBank Access NO: AAA36427
Method in brief: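 Recombinant kinase domain (aa 545–1106) phosphorylated a biotinylated PLC1 peptide with 5 μM ATP plus 33P-γ-ATP, in Tris pH 8, MgCl2, Na3VO4 and 1 mM DTT, for 60 min at 30 °C. Retained 33P was counted after washing. IC50 is the concentration halving activity versus no-inhibitor reactions.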

[2] = test system: T47D (breast); experiment: Anti-cell proliferation in tumor cells (14C-thymidine incorporation), T47D; assay type: cell-based; conditions: Homo sapiens, read-out: IC50 on cell proliferation, T47D
Description: (§1) The effect of compounds of the invention on cell proliferation in various tumor cells was tested based on incorporation of ^14C-thymidine into DNA of cells.
(§2) Similar to those described above in 3a, except that different cells, cell growth medium, and growth supplements were used. Human tumor cell lines derived from various human tissue origins (LoVo from colon, H460 from lung, T47D from breast, PC3 from prostate, A375 from melanoma, AsPC1 from pancreas) were obtained from the American Type Culture Collection (ATCC) and cultured under specified conditions required for each cell type, as provided by ATCC. Complete medium was obtained from Cellgro: Iscove's medium with 10% Fetal Bovine Serium (FBS) (Mediatech, Inc., Herndon, Va. 20171, Cat. No. 10-016-CV).
(§3) Tumor cells were seeded at approx. 3000–8000 cells per well in a volume of 100 μl of complete medium. Cells were grown for 24 hours in complete medium, and 1 μl of test compound was serially diluted in 100% DMSO and added to each well. For maximum growth control wells, only 1 μl of 100% DMSO was added. After 24 hours incubation, 20 μl of ^14C-thymidine master mix was added to each well and the ^14C-thymidine master mix was pepared according to the following regimen:
(§4) Cells were incubated for an additional 24 hours at 37° C. in medium containing test compound and ^14C-thymidine. Then, the reaction mixture was discarded and the plate was washed 2 times each with 200 μl PBS. Subsequently, each well on the plate was filled with 200 μl of PBS. The top of the plate was sealed with transparent plate sealer and white plate backing sealers were applied to the bottom of plates. The retained ^14C inside each well was measured using a Packard TopCount.
(§5) In order to test the potency of inhibition of the present compound, IC50 of an individual compound on the inhibition of tumor cell line proliferation was measured using the above procedure. As used herein, said IC50 refers to the concentration of the test compound at which the amount of tumor cell proliferation is reduced by one-half as compared to the maximum growth control wells without the compound.

[3] = test system: A375 (melanoma); experiment: Anti-cell proliferation in tumor cells (14C-thymidine incorporation), A375; assay type: cell-based; conditions: Homo sapiens, A-375; read-out: IC50 on cell proliferation, A375
Description: as §1, §2, §3, §4, §5

[4] = test system: LoVo (colon); experiment: Anti-cell proliferation in tumor cells (14C-thymidine incorporation), LoVo; assay type: cell-based; conditions: Homo sapiens, read-out: IC50 on cell proliferation, LoVo
Description: as §1, §2, §3, §4, §5

[5] = test system: PC3 (prostate); experiment: Anti-cell proliferation in tumor cells (14C-thymidine incorporation), PC3; assay type: cell-based; conditions: Homo sapiens, PC-3; read-out: IC50 on cell proliferation, PC3
Description: as §1, §2, §3, §4, §5

[6] = biological target: c-Abl kinase (Abelson murine leukemia virus, UniProt P00521); experiment: Inhibition of c-Abl kinase activity (cell-free, Abl peptide substrate, 33P Flashplate); assay type: biochemical; conditions: IC50 for the c-Abl kinase activity
[7] = test system: H460 (lung); experiment: Anti-cell proliferation in tumor cells (14C-thymidine incorporation), H460; assay type: cell-based; conditions: Homo sapiens, NCI-H460; read-out: IC50 on cell proliferation, H460
Description: as §1, §2, §3, §4, §5

[8] = test system: AsPC1 (pancreas); experiment: Anti-cell proliferation in tumor cells (14C-thymidine incorporation), AsPC1; assay type: cell-based; conditions: Homo sapiens, ASPC1; read-out: IC50 on cell proliferation, AsPC1
Description: as §1, §2, §3, §4, §5

[9] = Rat pharmacokinetics study of pro-drugs, conversion to parent monitored by HPLC/MS/MS; assay type: in vivo; conditions: po, rat plasma, 10 mg/kg orally, read-out: Fast PK (0.5 h) conc. Prodrug
Description: Furthermore, pro-drugs have been administered orally to rats (10 mg/kg) in pharmacokinetics studies, and the conversion of pro-drugs to the parent compound was montitored by HPLC/MS/MS analyses. Parent compound or the glucuronide conjugates of the parent compound was detected in the rat plasma from the pharmacokinetics studies (Table G).

[10] = PDGF-R kinase activity, read-out: IC50

T1 sequence (P09619 545-1106): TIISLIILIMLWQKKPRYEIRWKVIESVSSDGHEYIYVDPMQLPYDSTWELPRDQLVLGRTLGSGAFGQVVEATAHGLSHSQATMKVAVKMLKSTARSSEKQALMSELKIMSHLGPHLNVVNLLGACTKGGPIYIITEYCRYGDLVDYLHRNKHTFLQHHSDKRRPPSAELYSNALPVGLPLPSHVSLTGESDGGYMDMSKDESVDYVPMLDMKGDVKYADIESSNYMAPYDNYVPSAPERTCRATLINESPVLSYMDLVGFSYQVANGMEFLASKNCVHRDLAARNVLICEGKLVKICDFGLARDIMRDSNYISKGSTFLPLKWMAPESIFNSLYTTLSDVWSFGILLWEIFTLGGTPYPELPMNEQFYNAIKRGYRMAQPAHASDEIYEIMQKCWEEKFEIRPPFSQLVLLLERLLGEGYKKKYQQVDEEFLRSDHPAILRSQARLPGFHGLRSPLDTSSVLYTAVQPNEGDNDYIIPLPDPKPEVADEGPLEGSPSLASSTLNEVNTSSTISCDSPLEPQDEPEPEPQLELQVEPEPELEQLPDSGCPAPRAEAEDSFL
Chain of c-Abl kinase (P00521 115-385): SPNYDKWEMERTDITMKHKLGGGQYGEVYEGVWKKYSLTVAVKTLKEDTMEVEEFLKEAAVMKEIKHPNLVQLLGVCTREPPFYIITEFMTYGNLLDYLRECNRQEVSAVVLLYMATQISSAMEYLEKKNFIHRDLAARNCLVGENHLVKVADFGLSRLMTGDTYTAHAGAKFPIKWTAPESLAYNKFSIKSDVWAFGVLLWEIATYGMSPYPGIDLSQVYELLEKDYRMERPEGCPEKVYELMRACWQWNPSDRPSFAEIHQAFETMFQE

SMILES | inhibition at 10 µM ([1]; PDGF-R kinase activity) [%] | IC50 [1, 10] [µM] | IC50 [6] [nM] | other results
COc1cc2c(cc1OC)-c1n[nH]c(Nc3cccc(Cl)c3)c1C2 [Compound 4, (3-Chloro-phenyl)-(6,7-dimethoxy-2,4-dihydro-indeno[1,2-c]pyrazol-3-yl)-amine] | 90 | – | – | IC50 [2]: 30 nM
COc1cc2c(cc1OC)-c1c(c(Nc3cccc(Br)c3)nn1C)C2 [Compound 91, (3-Bromo-phenyl)-(6,7-dimethoxy-1-methyl-1,4-dihydro-indeno[1,2-c]pyrazol-3-yl)-amine] | 76 | 2.97 | – | IC50 [3]: 4 nM; IC50 [4]: 71 nM
CCOc1cccc(Nc2[nH]nc3c2Cc2cc(OCC)c(OCCCO)cc2-3)c1 [Compound 388, 3-[6-Ethoxy-3-(3-ethoxy-phenylamino)-2,4-dihydro-indeno[1,2-c]pyrazol-7-yloxy]-propan-1-ol] | 96 | 0.0367 | 46 | IC50 [5]: 4 nM; IC50 [2]: 3 nM; IC50 [7]: 6 nM; IC50 [8]: 155 nM; IC50 [3]: 2 nM; IC50 [4]: 18 nM
CCC1c2cc(OC)c(OC)cc2-c2n[nH]c(Nc3cccc(Br)c3)c21 (stereo not shown) [Compound 420, (3-Bromo-phenyl)-(4-ethyl-6,7-dimethoxy-2,4-dihydro-indeno[1,2-c]pyrazol-3-yl)-amine] | 100 | 0.0524 | 335 | IC50 [5]: 276 nM; IC50 [2]: 822 nM; IC50 [7]: 4100 nM; IC50 [8]: 4300 nM; IC50 [3]: 214 nM; IC50 [4]: 3800 nM
COc1cc2c(cc1OC)-c1c(c(Nc3cccc(F)c3)nn1C(=O)Oc1ccccc1)C2 [Compound 433, 3-(3-Fluoro-phenylamino)-6,7-dimethoxy-4H-indeno[1,2-c]pyrazole-1-carboxylic acid phenyl ester] | 71 | 0.585 | – | concentration at 0.5 h [9]: 60 nM
COc1cc2c(cc1OCCCO)Cc1c-2n[nH]c1NCc1c(F)cccc1F [Compound 449, 3-[3-(2,6-Difluoro-benzylamino)-7-methoxy-2,4-dihydro-indeno[1,2-c]pyrazol-6-yloxy]-propan-1-ol] | 98.5 | 0.0041 | 23 | –
COc1cc2c(cc1OCC(O)CO)Cc1c-2n[nH]c1NCc1c(F)cccc1F (stereo not shown) [Compound 457, 3-[3-(2,6-Difluoro-benzylamino)-7-methoxy-2,4-dihydro-indeno[1,2-c]pyrazol-6-yloxy]-propane-1,2-diol] | 100 | 0.00341 | 4 | –
CCOC(=O)CC(=O)n1nc(Nc2cccc(F)c2)c2c1-c1cc(OC)c(OC)cc1C2 [Compound 459, 3-[3-(3-Fluoro-phenylamino)-6,7-dimethoxy-4H-indeno[1,2-c]pyrazol-1-yl]-3-oxo-propionic acid ethyl ester] | 100 | 0.0365 | 70 | –
CCOc1cc2c(cc1OCC(O)CN1CCCC1)-c1n[nH]c(Nc3cccc(F)c3)c1C2 (stereo not shown) [Compound 460, 1-[6-Ethoxy-3-(3-fluoro-phenylamino)-2,4-dihydro-indeno[1,2-c]pyrazol-7-yloxy]-3-pyrrolidin-1-yl-propan-2-ol] | 97.5 | 0.00427 | 4 | –
CCOc1cc2c(cc1OCC(O)CN1CCCC1)-c1n[nH]c(Nc3cccnc3)c1C2 (stereo not shown) [Compound 461, 1-[6-Ethoxy-3-(pyridin-3-ylamino)-2,4-dihydro-indeno[1,2-c]pyrazol-7-yloxy]-3-pyrrolidin-1-yl-propan-2-ol] | 97.5 | 0.00755 | 337 | –
CCOc1cccc(Nc2[nH]nc3c2Cc2cc(OCC)c(OCC(O)CN4CCCC4)cc2-3)c1 (stereo not shown) [Compound 463, 1-[6-Ethoxy-3-(3-ethoxy-phenylamino)-2,4-dihydro-indeno[1,2-c]pyrazol-7-yloxy]-3-pyrrolidin-1-yl-propan-2-ol] | 98.5 | 0.011 | 8 | –
COCC(=O)n1nc(Nc2cccc(F)c2)c2c1-c1cc(OC)c(OC)cc1C2 [Compound 465, 1-[3-(3-Fluoro-phenylamino)-6,7-dimethoxy-4H-indeno[1,2-c]pyrazol-1-yl]-2-methoxy-ethanone] | 96 | 0.00673 | 51 | concentration at 0.5 h [9]: 223 nM
COc1cc2c(cc1OC)-c1c(c(Nc3cccc(F)c3)nn1C(=O)CCC(=O)O)C2 [Compound 466, 4-[3-(3-Fluoro-phenylamino)-6,7-dimethoxy-4H-indeno[1,2-c]pyrazol-1-yl]-4-oxo-butyric acid] | 96 | 0.0311 | 191 | –
COc1cc2c(cc1OC)-c1c(c(Nc3cccc(F)c3)nn1C(=O)COC(C)=O)C2 [Compound 467, Acetic acid 2-[3-(3-fluoro-phenylamino)-6,7-dimethoxy-4H-indeno[1,2-c]pyrazol-1-yl]-2-oxo-ethyl ester] | 96.5 | 0.0176 | 244 | –
OCC(O)COc1cccc2c1Cc1c-2n[nH]c1Nc1cccc(Br)c1 (stereo not shown) [Compound 468, 3-[3-(3-Bromo-phenylamino)-2,4-dihydro-indeno[1,2-c]pyrazol-5-yloxy]-propane-1,2-diol] | 95.5 | 0.0478 | 603 | –
OCC(O)COc1cccc2c1Cc1c-2n[nH]c1Nc1cccc(F)c1 (stereo not shown) [Compound 469, 3-[3-(3-Fluoro-phenylamino)-2,4-dihydro-indeno[1,2-c]pyrazol-5-yloxy]-propane-1,2-diol] | 96 | 0.16 | 27 | –
COc1cc2c(cc1OC)-c1c(c(Nc3cccc(F)c3)nn1C(=O)OCCOCCOCCO)C2 [Compound 471, 3-(3-Fluoro-phenyl-amino)-6,7-dimethoxy-4H-indeno[1,2-c]pyrazole-1-carboxylic acid 2-[2-(2-hydroxy-ethoxy)-ethoxy]-ethyl ester] | 90.5 | 0.135 | – | concentration at 0.5 h [9]: 0 nM
CCCC(=O)OCn1nc(Nc2cccc(F)c2)c2c1-c1cc(OC)c(OC)cc1C2 [Compound 490, Butyric acid 3-(3-fluoro-phenylamino)-6,7-dimethoxy-4H-indeno[1,2-c]pyrazol-1-ylmethyl ester] | 96 | 0.0285 | 38 | –
CNC(=O)n1nc(Nc2cccc(F)c2)c2c1-c1cc(OC)c(OC)cc1C2 [Compound 578, 3-(3-Fluoro-phenylamino)-6,7-dimethoxy-4H-indeno[1,2-c]pyrazole-1-carboxylic acid methylamide] | 80 | – | – | IC50 ([1]; read-out: IC50 (μM) on PDGF-R kinase activity): 4.02 µM; concentration at 0.5 h [9]: 7800 nM
